Measurements reported in US8212038B2, “Methods and compositions for controlling ectoparasites” (HatchTech Pty Ltd., priority 2003, dated 2012).
“Also recorded” adds a separate entry of the source. Square brackets hold non-standard residues; d marks the D form. Peptide text beside a SMILES is read from it. * marks the point of attachment. Sta = CC(C)C[C@H](N)[C@@H](O)CC(=O)O; Isovaleryl = CC(C)CC(=O)*

Assays:
[1] = test system: proteases in the egg shell washings (ESW) of lice eggs; assay: Gelatine substrate SDS-PAGE of egg shell washings treated with protease inhibitors; format: biochemical, Pediculus humanus humanus; settings: 37° C., 3 hrs
Procedure: Within 12 hours of hatching 50 body lice eggs (Pediculus humanus humanus) were removed from the hair and placed in a 1 ml eppendorf tube. 20 μL of distilled water was added to the unhatched eggs and the preparation incubated for 30 minutes at 32° C. The 20 μL was recovered, freeze dried and stored at −70° C. A number of other samples were also collected as described. Hair samples from which unhatched lice eggs had been removed were also collected and incubated as described above. In addition, a sample of unhatched eggs and a sample of hair from which lice eggs had been removed were collected 7 days post laying (within 24 hrs of egg hatching). Both samples were washed in 10 mls of a 1% solution of sodium hypochlorite for 1 minute followed by a 5×1 minute washes in 25 mls in distilled water to remove the hypochlorite. These samples were then incubated in […] of distilled water as described above. In addition, a group of 25 lice eggs that were within 24 hours of hatching, were pretreated with 1% sodium hypochlorite, washed as described above and left to hatch. Within 1-2 hours after hatching the empty egg shells were incubated in 20 μL of distilled water as described above, the washings collected from the hatched egg shells and stored at −70° C. All of the extract samples were then freeze-dried overnight. The freeze-dried samples were then resuspended in […] of non-reducing SDS sample buffer, centrifuged at 10,000 g for 2 minutes and the entire 15 μL loaded on to 10% gelatine substrate SDS-PAGE gels. Gels were run at 4° C. for 10 minutes at 10 mA followed by a further 25 minutes at 15 mA per gel. They were then incubated for 2×20 minutes in a 2.5% Triton-X 100 solution followed by a three hour incubation in 0.1M Tris/HCl containing 1 mM CaCl2 pH 8.0. Activity was detected as clear areas on the gel the result of protease activity degrading the gelatine within the gel.
10% SDS-PAGE gelatine substrate gels were loaded with freeze dried egg shell washings from 100 lice eggs that had been resuspended in 50 μl of non-reducing sample buffer with samples run at 10 μl per lane. Gels were run at 4° C. for 10 minutes at 10 mA per gel followed by a further 25 minutes at 15 mA per gel. Gels were then cut into strips and each strip incubated for 2×20 minutes in a 2.5% Triton-X 100 solution containing a specific inhibitor. The inhibitors used were the serine protease inhibitor PMSF (5 mM), the metalloprotease inhibitor 1,10-phenanthroline (10 mM), the aspartic protease Pepstatin (5 μM) and the cysteine inhibitor E-64 (10 μM). The gel strips were then incubated in 0.1M Tris/HCl containing 1 mM CaCl2 pH 8 containing the different protease inhibitors for 3 hrs at 37° C., before being stained in Coomassie blue and destained as previously described.

lice eggs [2] = assay: Time course in vitro lice egg hatching assay; format: in vivo, Pediculus humanus humanus
[3] = test system: Helicoverpa armigera eggs (Tatura×Toowoomba strains); assay: Egg hatch of Helicoverpa armigera after exposure to inhibitor; settings: 10 mM
Procedure: Several hundred Helicoverpa armigera eggs (Tatura×Toowoomba strains) were collected, that had been laid on fine mesh cloth over a 24 hour period.
Batches of Helicoverpa eggs were exposed to a specific inhibitor solution for between 2-10 seconds the excess solution drained by blotting with dry tissue paper. The egg masses were then placed in a humid box at 25 degrees until egg hatch. Control eggs were exposed to absolute methanol as described above.

[4] = test system: head lice egg (Pediculus humanus capitus); assay: Head lice egg hatching time course; format: in vivo; settings: 10 mM
Procedure: Tests were carried out to determine if metal chelating agent and metalloprotease inhibitor 1,10-phenanthroline could inhibit head lice egg (Pediculus humanus capitus) hatching as opposed to body lice. Head lice eggs were obtained by placing groups of both 1-2 adult male and 6-8 adult female head lice in separate wells in a 24 well petri dish containing cotton cloth. The petri dish was transferred to a humid incubator at 32° C., 70% RH for 12 hours to permit the female lice to lay their eggs. After 12 hours, all adult lice were removed from the petri dish wells and a series of time-course experiments conducted. A group of eggs (24 hr old) was treated for 10 minutes with 200 μl of a 10 mM solution of 1,10-phenanthroline. A control (i.e., no inhibitor treatment) group of eggs was also included. The eggs were removed from the inhibitor, blotted dry on tissue paper, placed at 32° C., 70% RH and left to hatch. A second group of eggs, (48 hr old) were treated as previously described and also left to hatch. This process was repeated at 24 hr intervals on head lice eggs up to 120 hr post laying. This method of assaying inhibitors more closely mirrors the field situation where lice eggs will be at various stages of development on the head and permits the inhibitory effects to be observed on these different stages of the parasite.

lice eggs [5] = assay: Standard lice egg-hatching assay with commercial head lice products; format: in vivo; settings: across the different stages of lice egg hatching (24-120 hr post laying)
Procedure: These three products were tested according to manufacturer's recommendations. Groups of eggs (24 hr old) were treated with the different products according to manufacturer's recommendations for the appropriate period of time (5-10 minutes) followed by a rinse for 1-2 minutes in 32° C. water. A positive controls (10 mM 1,10-phenanthroline) and two negative controls (no treatment and 20% Methanol) were also incorporated. Post exposure to the different products, the eggs were rinsed with warm water at 32° C. before being blotted dry on tissue paper and placed at 32° C., 70% RH and left to hatch. A second group of eggs, (48 hr old) were treated as previously described and also left to hatch. This process was repeated at 24 hr intervals on head lice eggs up to 120 hr post laying. This method of assaying inhibitors more closely mirrors the field situation where lice eggs will be at various stages of development on the head and permits the inhibitory effects to be observed on these different stages of the parasite.
These two products were tested according to manufacturer's recommendations. Groups of eggs (24 hr old) were treated with the different products according to manufacturer's recommendations for the appropriate period of time (5-10 minutes) followed by a rinse for 1-2 minutes in 32° C. water. Two negative controls (no treatment and 20% ethanol) were also incorporated. […]

lice eggs [6] = assay: Lice egg-hatching bioassay, eggs treated once 5 days post laying; format: in vivo, Pediculus humanus humanus
Procedure: To evaluate the potential effects of protease inhibitors on lice egg hatching it was necessary to develop a reliable in vitro bioassay. Male and female clothing lice were fed on a rabbit as previously described. […] During this period the female lice laid their eggs and attached them to the woven cloth. All lice would then be removed and the eggs permitted to incubate for the following 5 days. […] The eggs would then progress through to their final stages of development and hatch. In untreated control eggs a reliable average percentage hatch of between 85-95 percent was obtained using the in vitro egg hatch assay. […] Lice eggs were laid onto cloth as described above. […] Protease inhibitor solutions were typically prepared as stock solutions and added fresh at the appropriate concentration. Specifically stock solutions were prepared as follows: 1,10-phenanthroline (200 mM in methanol) and Bestatin (5 mg/ml in methanol). In addition, the equivalent levels of the solvent were added to the non-inhibitor containing controls eggs to test for any buffer alone effects. Percentage hatch inhibition was calculated as the percentage reduction in egg hatch compared to the untreated control.

[7] = test system: Plutella xylostella eggs (Waite strain); assay: Egg hatch of Plutella xylostella after dipping in inhibitor; settings: 10 mM
Procedure: The egg masses were then placed in a humid box at 25 degrees until egg hatch. Control eggs were exposed to absolute methanol as described above. At day 6 post laying the eggs were assessed from the different treatments and the percentage of egg hatch determined relative to the control as shown in Table 9.
Batches of Plutella eggs that were laid on either fine cloth or parafilm were dipped in a specific inhibitor solution for between 2-10 seconds, the excess solution was drained by blotting with dry tissue paper. The egg masses were then placed in a humid box at 25 degrees until egg hatch. Control eggs were exposed to absolute methanol as described above or not treated.
The egg masses were then placed in a humid box at 25 degrees until egg hatch. Control eggs were exposed to absolute ethanol as described above. On day 6 post laying the eggs were assessed from the different treatments and the percentage of egg hatch determined relative to the control.

[8] = added within 24 hours of hatching, data not shown

For `c1cnc2c(c1)ccc1cccnc12` [1,10-phenanthroline, reference compound], the “protease activity of ESW on gelatine SDS-PAGE after inhibitor treatment” value (“protease activity … after inhibitor treatment” below) ([1]; 10 mM inhibitor) was “significant reduction in protease activity”, the “inhibition of lice egg hatching (in words)” value (lice eggs [2]; 10 mM, following washing of eggs in water) was “still highly efficacious at inhibiting lice egg hatching” and the “inhibition of lice egg hatching (in words)” value (lice eggs [2]; varying concentrations (10, 5, 2.5 mM) over the time course) was “Significant inhibition; also recorded: significantly inhibit egg hatching in lice at all time points examined”. The “inhibition of egg hatching of Helicoverpa armigera (in words)” value [3] was “able to inhibit egg hatching at 10 mM only”, the “inhibition of egg hatching in head lice (in words)” value [4] was “significantly inhibit egg hatching in head lice” and the “ovicidal activity (in words)” value (lice eggs [5]) was “highly effective at inhibiting lice egg hatching”. For the same compound, the “inhibition of egg hatching in lice (in words)” value (from here on “inhibition … in lice (in words)”) (lice eggs [6]; 10 mM, eggs treated 5 days post laying) was “significantly inhibited egg hatching”, the “inhibition … in lice (in words)” value (lice eggs [6]; [8]) was “variable inhibition of egg hatching” and the “inhibition of egg hatching in Plutella xylostella (in words)” value [7] was “significantly inhibit egg hatching”.

With `O=S(=O)(F)Cc1ccccc1` [PMSF] the “protease activity … after inhibitor treatment” value ([1]; 5 mM inhibitor) was “No reduction in protease activity”.

`CC(C)C[C@H](NC(=O)[C@@H](O)[C@H](N)Cc1ccccc1)C(=O)O` [Bestatin, reference compound] was tested, and the “inhibition of lice egg hatching (in words)” value (lice eggs [2]; 5 mM, time course) was “significant inhibition, but only when applied approximately 24 hrs prior to egg hatch; also recorded: partially inhibit lice egg hatching”, the “inhibition … in lice (in words)” value (lice eggs [6]; 5 mM, eggs treated 5 days post laying) was “significantly inhibit lice egg hatching” and the “inhibition … in lice (in words)” value (lice eggs [6]; [8]) was “variable inhibition of egg hatching”.

`CC(C)CC(=O)N[C@H](C(=O)N[C@H](C(=O)N[C@@H](CC(C)C)[C@@H](O)CC(=O)N[C@@H](C)C(=O)N[C@@H](CC(C)C)[C@@H](O)CC(=O)O)C(C)C)C(C)C` [pepstatin] (Isovaleryl-VV[Sta]A[Sta]-OH) was tested, and the “protease activity … after inhibitor treatment” value ([1]; 5 μM inhibitor, data not shown) was “did not show any reduction in protease activity; also recorded: No reduction in protease activity”.

In the case of `CC(C)C[C@H](NC(=O)[C@H]1O[C@@H]1C(=O)O)C(=O)NCCCCN=C(N)N` [E64], the “protease activity … after inhibitor treatment” value ([1]; 10 μM inhibitor) is reported as “No reduction in protease activity”.
